Data from ChEMBL document CHEMBL3603732, “Synthesis, biological evaluation and molecular modeling of new tetrahydroacridine derivatives as potential multifunctional agents for the treatment of Alzheimer's disease” (Bioorg Med Chem, 2015).

Tests used:
[1] = target: T1, Acetylcholinesterase (Homo sapiens, UniProt P22303); test: biochemical
Description: Inhibition of acetylcholinesterase in human erythrocytes using acetylthiocholine iodide substrate by spectrophotometric Ellman's method

[2] = system: acetylcholinesterase; test: Selectivity index, ratio of IC50 for cytotoxic activity against human A549 cells to IC50 for acetylcholinesterase in human erythrocytes; assay type: toxicity, cell-based; settings: read-out: Ratio IC50
[3] = target: Cholinesterase (Equus caballus, UniProt P81908)
Chain of Cholinesterase (P81908 whole entry): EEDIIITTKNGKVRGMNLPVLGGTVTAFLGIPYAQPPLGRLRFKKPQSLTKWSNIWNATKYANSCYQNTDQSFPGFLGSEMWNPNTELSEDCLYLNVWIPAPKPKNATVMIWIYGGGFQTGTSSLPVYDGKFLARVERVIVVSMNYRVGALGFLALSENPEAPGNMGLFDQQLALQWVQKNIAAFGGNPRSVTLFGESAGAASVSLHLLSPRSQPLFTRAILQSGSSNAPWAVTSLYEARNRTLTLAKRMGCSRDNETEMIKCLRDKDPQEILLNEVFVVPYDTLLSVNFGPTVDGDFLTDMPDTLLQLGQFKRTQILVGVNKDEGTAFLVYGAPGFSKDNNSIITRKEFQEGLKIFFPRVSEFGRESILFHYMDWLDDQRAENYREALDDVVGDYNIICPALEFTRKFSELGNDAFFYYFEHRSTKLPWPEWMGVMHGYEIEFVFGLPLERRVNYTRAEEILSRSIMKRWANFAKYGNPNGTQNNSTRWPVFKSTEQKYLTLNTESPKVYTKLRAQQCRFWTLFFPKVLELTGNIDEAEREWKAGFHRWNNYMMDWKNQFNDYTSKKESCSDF
Description: Inhibition of equine serum BChE using ATC iodide substrate by Ellman's assay

[4] = target: T1, Acetylcholinesterase; test: Inhibition of AChE (unknown origin) assessed as enzyme-mediated Amyloid beta peptide (1 to 42) aggregation incubated for 5 hrs by thioflavin-T based fluorometric assay
[5] = Cytotoxic activity against human A549 cells assessed as cell viability at 100 nM incubated for 48 hrs by WST1 assay; assay type: cell-based; settings: read-out: Activity
[6] = target: Acetylcholinesterase (Electrophorus electricus, UniProt O42275)
Chain of Acetylcholinesterase (Electrophorus electricus, UniProt O42275) (O42275 whole entry): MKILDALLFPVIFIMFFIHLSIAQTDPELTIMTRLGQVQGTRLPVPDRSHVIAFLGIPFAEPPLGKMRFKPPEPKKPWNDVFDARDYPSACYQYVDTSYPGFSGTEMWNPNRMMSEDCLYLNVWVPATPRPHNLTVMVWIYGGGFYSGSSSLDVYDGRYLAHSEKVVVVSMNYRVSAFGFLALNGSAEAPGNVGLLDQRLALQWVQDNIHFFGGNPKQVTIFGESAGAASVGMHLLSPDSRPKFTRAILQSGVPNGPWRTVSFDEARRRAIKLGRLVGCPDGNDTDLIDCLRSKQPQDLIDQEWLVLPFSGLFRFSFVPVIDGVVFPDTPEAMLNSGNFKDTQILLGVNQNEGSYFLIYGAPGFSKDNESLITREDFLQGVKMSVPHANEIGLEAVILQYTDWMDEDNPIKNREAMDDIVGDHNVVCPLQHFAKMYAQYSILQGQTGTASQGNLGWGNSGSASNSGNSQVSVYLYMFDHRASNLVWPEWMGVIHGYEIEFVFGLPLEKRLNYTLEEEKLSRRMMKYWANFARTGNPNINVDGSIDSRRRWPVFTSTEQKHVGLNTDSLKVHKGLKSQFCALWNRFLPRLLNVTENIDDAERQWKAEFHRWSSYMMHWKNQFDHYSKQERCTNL
Description: Inhibition of electric eel AChE using ATC iodide substrate by Ellman's assay

[7] = system: A549; test: Cytotoxic activity against human A549 cells assessed as reduction in cell viability incubated for 48 hrs by WST1 assay; assay type: cell-based; settings: A549, 48 h

T1 sequence (P22303 whole entry): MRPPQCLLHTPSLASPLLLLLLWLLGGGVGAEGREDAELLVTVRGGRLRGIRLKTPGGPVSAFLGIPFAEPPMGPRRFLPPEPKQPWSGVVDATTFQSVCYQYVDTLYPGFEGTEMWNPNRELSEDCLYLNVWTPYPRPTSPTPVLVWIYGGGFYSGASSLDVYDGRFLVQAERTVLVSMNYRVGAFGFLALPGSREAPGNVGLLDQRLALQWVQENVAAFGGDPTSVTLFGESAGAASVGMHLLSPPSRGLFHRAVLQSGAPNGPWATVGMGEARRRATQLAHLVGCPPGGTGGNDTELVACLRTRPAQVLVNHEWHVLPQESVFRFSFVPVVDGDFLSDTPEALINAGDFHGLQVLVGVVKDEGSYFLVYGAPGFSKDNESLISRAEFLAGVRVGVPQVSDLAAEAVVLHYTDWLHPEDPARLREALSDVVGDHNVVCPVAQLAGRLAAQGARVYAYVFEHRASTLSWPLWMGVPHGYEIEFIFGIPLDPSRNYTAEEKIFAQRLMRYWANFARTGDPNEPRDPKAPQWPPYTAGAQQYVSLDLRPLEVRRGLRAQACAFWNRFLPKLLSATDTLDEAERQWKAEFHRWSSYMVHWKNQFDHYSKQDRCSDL

| Structure (SMILES) | IC50 [1] [µM] | selectivity ratio [2] | IC50 [3] [µM] | IC50 [4] [µM] | viability at 48 h, 0.1 µM [5] [%] | IC50 [6] [µM] | IC50 [7] [µM] |
| --- | --- | --- | --- | --- | --- | --- | --- |
| CN(C)c1ccc(C(=O)NCCNc2c3c(nc4ccccc24)CCCC3)cc1 | 0.142 | 275 | 0.0005 | 12.1 | 93.7 | 0.0004 | 39.1 |
| CN(C)c1ccc(C(=O)NCCCNc2c3c(nc4ccccc24)CCCC3)cc1 | 0.019 | 2500 | 0.0733 |  | 91.3 | 0.2 | 46.3 |
| CN(C)c1ccc(C(=O)NCCCCNc2c3c(nc4ccccc24)CCCC3)cc1 | 0.295 |  | 0.007 |  |  | 0.2 |  |
| CN(C)c1ccc(C(=O)NCCCCCNc2c3c(nc4ccccc24)CCCC3)cc1 | 0.357 |  | 0.0037 |  |  | 0.0867 |  |
| CN(C)c1ccc(C(=O)NCCCCCCNc2c3c(nc4ccccc24)CCCC3)cc1 | 0.064 |  | 0.0011 |  |  | 0.0006 |  |
| CN(C)c1ccc(C(=O)NCCCCCCCNc2c3c(nc4ccccc24)CCCC3)cc1 | 0.075 |  | 0.21 |  |  | 0.167 |  |
| CN(C)c1ccc(C(=O)NCCCCCCCCNc2c3c(nc4ccccc24)CCCC3)cc1 | 0.077 |  | 0.0007 |  |  | 0.0005 |  |
| CN(C)c1ccc(C(=O)NCCCCCCCCCNc2c3c(nc4ccccc24)CCCC3)cc1 | 0.125 |  | 0.0007 |  |  | 0.0005 |  |
